Four compounds from US6368812B1 (priority 1996, dated 2002) can be followed below.

SMILES strings stand for the structures.

Assay [1] has as its target T1, human GALR3 (Homo sapiens, UniProt O60755).
T1 construct: The full-length human GALR3 gene contains 1107 bp within its coding region, encoding for a predicted protein of 368 aa; expressed in transfected cells
T1 sequence (O60755 1-368): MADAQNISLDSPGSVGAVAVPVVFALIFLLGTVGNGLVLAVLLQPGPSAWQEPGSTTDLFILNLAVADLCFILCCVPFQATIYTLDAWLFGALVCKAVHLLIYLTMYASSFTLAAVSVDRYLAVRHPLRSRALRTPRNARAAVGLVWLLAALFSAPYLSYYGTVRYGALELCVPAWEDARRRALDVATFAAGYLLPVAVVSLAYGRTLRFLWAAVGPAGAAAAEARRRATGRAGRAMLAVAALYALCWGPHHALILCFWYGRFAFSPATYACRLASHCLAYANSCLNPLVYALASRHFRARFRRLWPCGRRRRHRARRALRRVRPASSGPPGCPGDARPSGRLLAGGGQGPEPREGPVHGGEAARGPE
The assay is described as follows: porcine 125I-galanin binding, LM(tk-) cells stably expressing human GALR3 (L-hGalR3-228).

Assay [2] addresses T2, rat GALR1 (Rattus norvegicus, UniProt Q62805).
T2 construct: expressed in transfected cells; host or cells: CHO
T2 sequence (Q62805 1-346): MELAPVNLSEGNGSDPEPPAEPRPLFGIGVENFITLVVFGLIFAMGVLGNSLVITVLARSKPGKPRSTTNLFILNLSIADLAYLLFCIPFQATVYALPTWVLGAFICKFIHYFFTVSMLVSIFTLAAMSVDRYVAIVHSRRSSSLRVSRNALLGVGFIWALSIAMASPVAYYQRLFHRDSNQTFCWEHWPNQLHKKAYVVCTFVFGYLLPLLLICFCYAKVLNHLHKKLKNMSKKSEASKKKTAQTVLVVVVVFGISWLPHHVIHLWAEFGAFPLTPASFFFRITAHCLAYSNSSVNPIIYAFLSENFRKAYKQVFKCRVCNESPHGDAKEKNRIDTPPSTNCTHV
The assay is described as follows: biochemical. The format is binding. Particulars: Table 9; read-out: Ki (nM) Rat GalR1 CHO.

The target in assay [3] is T3, rat GALR2 (Rattus norvegicus, UniProt O08726).
T3 construct: expressed in transfected cells
T3 sequence (O08726 1-372): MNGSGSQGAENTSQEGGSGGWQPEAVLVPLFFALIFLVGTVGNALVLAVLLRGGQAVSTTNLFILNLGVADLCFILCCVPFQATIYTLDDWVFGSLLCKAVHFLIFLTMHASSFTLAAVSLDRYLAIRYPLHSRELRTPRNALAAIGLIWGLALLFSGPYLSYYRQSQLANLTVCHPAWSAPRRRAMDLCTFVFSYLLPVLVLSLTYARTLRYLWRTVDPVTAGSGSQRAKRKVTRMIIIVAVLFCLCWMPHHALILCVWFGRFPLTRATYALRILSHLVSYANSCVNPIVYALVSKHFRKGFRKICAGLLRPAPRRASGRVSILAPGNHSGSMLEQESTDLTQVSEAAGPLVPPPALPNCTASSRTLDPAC
Briefly: porcine 125I-galanin binding assay, Rat GALR2 LMTK #4.

In assay [4] the target is T4, Hum GALR1 (Homo sapiens, UniProt P47211).
T4 sequence (P47211 1-349): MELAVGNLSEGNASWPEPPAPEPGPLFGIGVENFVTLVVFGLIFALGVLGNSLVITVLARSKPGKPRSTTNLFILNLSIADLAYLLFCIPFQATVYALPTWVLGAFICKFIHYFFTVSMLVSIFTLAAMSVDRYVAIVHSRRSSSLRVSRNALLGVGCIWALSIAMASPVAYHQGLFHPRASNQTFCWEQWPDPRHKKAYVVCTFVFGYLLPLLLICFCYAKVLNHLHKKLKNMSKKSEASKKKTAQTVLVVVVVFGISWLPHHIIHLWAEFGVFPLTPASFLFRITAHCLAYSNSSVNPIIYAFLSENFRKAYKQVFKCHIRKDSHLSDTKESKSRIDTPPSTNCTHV
Briefly: porcine 125I-galanin binding assay, Hum GALR1 LM(tk-). The note with it: Table 10.

Assay [5] addresses T5, Hum GALR2 (Homo sapiens, UniProt O43603).
T5 construct: expressed in transfected cells; host or cells: CHO
T5 sequence (O43603 1-387): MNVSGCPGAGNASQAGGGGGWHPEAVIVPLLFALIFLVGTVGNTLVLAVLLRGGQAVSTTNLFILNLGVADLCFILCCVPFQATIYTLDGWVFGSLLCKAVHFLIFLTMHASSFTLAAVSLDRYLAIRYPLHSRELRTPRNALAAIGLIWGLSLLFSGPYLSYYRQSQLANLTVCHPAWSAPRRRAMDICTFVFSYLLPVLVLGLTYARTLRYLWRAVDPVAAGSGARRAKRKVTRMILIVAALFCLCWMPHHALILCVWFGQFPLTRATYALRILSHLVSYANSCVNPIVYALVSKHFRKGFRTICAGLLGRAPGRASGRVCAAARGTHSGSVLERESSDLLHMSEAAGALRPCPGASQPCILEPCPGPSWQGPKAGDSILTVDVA
The assay is described as follows: porcine 125I-galanin binding assay, Hum GALR2 CHO.

Assay [6] addresses T6, rat GALR3 (Rattus norvegicus, UniProt O88626).
T6 sequence (O88626 1-370): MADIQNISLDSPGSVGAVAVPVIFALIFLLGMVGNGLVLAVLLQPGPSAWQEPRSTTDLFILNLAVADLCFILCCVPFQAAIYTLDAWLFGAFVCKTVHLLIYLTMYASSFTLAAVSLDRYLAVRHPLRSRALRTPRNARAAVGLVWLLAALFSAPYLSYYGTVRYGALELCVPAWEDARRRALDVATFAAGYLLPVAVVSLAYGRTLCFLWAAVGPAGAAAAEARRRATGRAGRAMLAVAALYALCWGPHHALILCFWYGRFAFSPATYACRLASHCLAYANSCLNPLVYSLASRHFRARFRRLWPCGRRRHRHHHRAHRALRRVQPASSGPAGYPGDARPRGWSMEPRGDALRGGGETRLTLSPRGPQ
Briefly: porcine 125I-galanin binding, membranes of stable cell line 293-rGalR3-105. The arrangement: which comprises the entire coding region of rat GALR3; expressed in transfected cells. Particulars: Ki (nM) Rat GALR3 293 #105, Table 9.

Assay [7] deals with T7, human α1A adrenergic receptor (Homo sapiens, UniProt P35348).
T7 construct: expressed in transfected cells; host or cells: Xenopus laevis oocytes, mRNA-injected
T7 sequence (P35348 1-466): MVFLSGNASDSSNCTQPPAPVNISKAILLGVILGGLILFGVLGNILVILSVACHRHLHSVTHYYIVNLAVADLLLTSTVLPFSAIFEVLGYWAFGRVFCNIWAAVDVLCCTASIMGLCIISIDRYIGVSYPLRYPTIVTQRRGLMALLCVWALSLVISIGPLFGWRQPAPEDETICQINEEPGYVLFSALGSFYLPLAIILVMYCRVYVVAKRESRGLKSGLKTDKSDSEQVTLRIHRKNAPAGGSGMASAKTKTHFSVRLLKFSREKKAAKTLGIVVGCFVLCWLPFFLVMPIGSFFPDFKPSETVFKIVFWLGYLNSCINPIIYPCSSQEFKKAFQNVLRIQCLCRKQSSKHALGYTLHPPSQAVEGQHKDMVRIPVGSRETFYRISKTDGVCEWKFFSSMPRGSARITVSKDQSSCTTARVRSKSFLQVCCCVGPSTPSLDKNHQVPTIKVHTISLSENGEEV
It is filed as cell-based. The method, then:
FIG. 7 Pertussis toxin sensitivity of GalR3 and GalR1 stimulation of GIRK currents. […] . Number of observations appears in parenthesis below the x-axis. Apparent absence of a bar indicates an amplitude of 0 (no response above baseline).
5′-[…] […]-3′ (SEQ ID NO. 59). […] The new plasmid was designated M52.
Experiments were carried out at room temperature.

In assay [8] the target is T1, human GALR3. Briefly: voltage clamp currents in Xenopus oocytes expressing hGALR3 and GIRK1/GIRK4. It is filed as cell-based.
Protocol: Activation of inwardly rectifying currents that are sensitive to 300 μM Ba^++ signifies GALR3 coupling to a Gαi or Gαo pathway in the oocytes.
Oocytes were isolated as described above, except that 3 mg/mL collagenase was used to defolliculate the oocytes.
The nature of assay [9]: food intake after intracerebroventricular injection in rats. Particulars: injected i.c.v.
Protocol: Measurement of food intake was performed for 3 hours after injection, but other protocols may also be used. Saline was injected as a control, but it is understood that other vehicles may be required as controls for some peptides and compounds. […] A preferred anatomic location for injection is the hypothalamus, in particular, the paraventricular nucleus.
Assay [10] addresses T6, rat GALR3. The assay is described as follows: porcine 125I-galanin binding, rat GALR3 transiently expressed in COS-7 cell membranes. The note with it: peptide displacement assays. More on the design: which comprises the entire coding region of rat GALR3; expressed in transfected cells; host or cells: COS-7, transient.
Protocol: Assays were conducted at room temperature for 120 minutes, and leupeptin, aprotonin and phosphoramidon were omitted from the rat GALR3 assay, while bacitracin was added to 0.1%.
[11] abbreviates: Ki (nM) Hum GALR3 LMTK− #8, Table 10.

With `CC[C@H](C)[C@H](NC(=O)[C@H](C)NC(=O)[C@H](Cc1c[nH]cn1)NC(=O)[C@@H]1CCCN1C(=O)CNC(=O)[C@H](CC(C)C)NC(=O)[C@H](CC(C)C)NC(=O)[C@H](Cc1ccc(O)cc1)NC(=O)CNC(=O)[C@H](C)NC(=O)[C@H](CO)NC(=O)[C@H](CC(N)=O)NC(=O)[C@H](CC(C)C)NC(=O)[C@@H](NC(=O)[C@H](Cc1c[nH]c2ccccc12)NC(=O)CNC(=O)[C@H](CCCNC(=N)N)NC(=O)[C@H](CCCCN)NC(=O)[C@H](CCC(=O)O)NC(=O)[C@H](CCCCN)NC(=O)[C@@H](NC(=O)[C@@H]1CCCN1C(=O)[C@H](CO)NC(=O)CNC(=O)[C@@H](N)CC(C)C)C(C)C)[C@@H](C)O)C(=O)N[C@@H](CC(=O)O)C(=O)N[C@@H](CC(N)=O)C(=O)N[C@@H](Cc1c[nH]cn1)C(=O)N[C@@H](CCCNC(=N)N)C(=O)N[C@@H](CO)C(=O)N[C@@H](Cc1ccccc1)C(=O)N[C@@H](Cc1c[nH]cn1)C(=O)N[C@@H](CC(=O)O)C(=O)N[C@@H](CCCCN)C(=O)N[C@@H](Cc1ccc(O)cc1)C(=O)NCC(=O)N[C@@H](CC(C)C)C(=O)N[C@@H](C)C(N)=O` [(−)9 to (+)29 galanin, porcine], the Ki was 50.1 nM in assay [1] (setting [11]); 51.3 nM in assay [2]; 3.47 nM in [3]; 7.85 nM in [4]; 5.43 nM in assay [5]; 4.17 nM in assay [6].
As for `CC[C@H](C)[C@H](NC(=O)[C@H](C)NC(=O)[C@H](Cc1c[nH]cn1)NC(=O)[C@@H]1CCCN1C(=O)CNC(=O)[C@H](CC(C)C)NC(=O)[C@H](CC(C)C)NC(=O)[C@H](Cc1ccc(O)c(I)c1)NC(=O)CNC(=O)[C@H](C)NC(=O)[C@H](CO)NC(=O)[C@H](CC(N)=O)NC(=O)[C@H](CC(C)C)NC(=O)[C@@H](NC(=O)[C@@H](Cc1c[nH]c2ccccc12)NC(=O)CN)[C@@H](C)O)C(=O)N[C@@H](CC(=O)O)C(=O)N[C@@H](CC(N)=O)C(=O)N[C@@H](Cc1c[nH]cn1)C(=O)N[C@@H](CCCNC(=N)N)C(=O)N[C@@H](CO)C(=O)N[C@@H](Cc1ccccc1)C(=O)N[C@@H](Cc1c[nH]cn1)C(=O)N[C@@H](CC(=O)O)C(=O)N[C@@H](CCCCN)C(=O)N[C@@H](Cc1ccc(O)c(I)c1)C(=O)NCC(=O)N[C@@H](CC(C)C)C(=O)N[C@@H](C)C(N)=O` [D-Trp2-(d-iodo-L-Tyr9)-(3-iodo-L-Tyr26)-galanin], the figures for the inhibition constant Ki in [1] (setting [11]) and in assay [6] were 933 nM and 182 nM, respectively.
With `CNC[C@H](O)c1ccc(O)c(O)c1` [epinephrine], the “Cl− currents in oocytes expressing α1a receptors” value in assay [7] is given as “stimulates transient Cl^− currents”.
On to `CC[C@H](C)[C@H](NC(=O)[C@H](C)NC(=O)[C@H](Cc1c[nH]cn1)NC(=O)[C@@H]1CCCN1C(=O)CNC(=O)[C@H](CC(C)C)NC(=O)[C@H](CC(C)C)NC(=O)[C@H](Cc1ccc(O)cc1)NC(=O)CNC(=O)[C@H](C)NC(=O)[C@H](CO)NC(=O)[C@H](CC(N)=O)NC(=O)[C@H](CC(C)C)NC(=O)[C@@H](NC(=O)[C@H](Cc1c[nH]c2ccccc12)NC(=O)CNC(=O)[C@H](CCCNC(=N)N)NC(=O)[C@H](CCCCN)NC(=O)[C@H](CCC(=O)O)NC(=O)[C@H](CCCCN)NC(=O)[C@@H](NC(=O)[C@@H]1CCCN1C(=O)[C@@H](N)CO)C(C)C)[C@@H](C)O)C(=O)N[C@@H](CC(=O)O)C(=O)N[C@@H](CC(N)=O)C(=O)N[C@@H](Cc1c[nH]cn1)C(=O)N[C@@H](CCCNC(=N)N)C(=O)N[C@@H](CO)C(=O)N[C@@H](Cc1ccccc1)C(=O)N[C@@H](Cc1c[nH]cn1)C(=O)N[C@@H](CC(=O)O)C(=O)N[C@@H](CCCCN)C(=O)N[C@@H](Cc1ccc(O)cc1)C(=O)NCC(=O)N[C@@H](CC(C)C)C(=O)N[C@@H](C)C(N)=O` [galanin −7 to +29, (−7) to (+29) galanin, porcine], for which the Ki in assay [1] (setting [11]) was 28.8 nM; in assay [1] (Ki (nM) Human L-hGalR3-228, Table 5, stable), 29 nM; in [1] (human GALR3LM (tk−) Ki (nM), Table 8) it was 28.8 nM; in [2], 36.3 nM; in [3], 3.16 nM; in assay [4], 6.84 nM. In assay [5], this compound came in with a Ki of 4.95 nM. Also, the EC50 in [8] was 1910 nM. The “agonist activity at human GALR3 in oocytes” value in assay [8] is “evoked agonist activity”. Besides, the “feeding / food intake in words” value in assay [9] is on record as “induces feeding”. Further, the “binding affinity for rat GALR3 in words” value in assay [10] is recorded as “affinity comparable to that for porcine galanin”.
